The results in this text go back to patent publication US20190100534A1, “Cephem Compounds with Latent Reactive Groups” (Gladius Pharmaceuticals, Inc., priority 2017, published 2019).

What all share (format): cell-based
In assay [1] the test system is Pseudomonas aeruginosa (PA). In words: MIC determination. As to conditions: Pseudomonas aeruginosa, 18 h, read-out: Minimum Inhibitory Concentrations, PA. As to the method:
(§1) Sterile technique was used throughout these experiments. Suspensions of organisms were removed from storage (−80° C.) and partially thawed. Partially thawed organisms (1 μL) were inoculated into 3 mL sterile LB Broth in a sterile culture tube and capped, then cultured at 37° C. with shaking for 4-5 hours until the optical density at 600 nm (OD600) was greater than 0.1 on a single beam spectrophotometer.
(§2) The concentration of organisms was adjusted to 0.08-0.1 OD600 (0.5 McFarland units) by dilution with sterile cation-adjusted Meuller-Hinton (CAMH) broth. The suspensions were used within 30 minutes of preparation.
(§3) A stock solution was made of each test compound by measuring 6.4 mg of the compound on an analytical balance and dissolving it in DMSO (1 mL) to get a transparent solution. The solutions were stored at −20° C. and thawed prior to use.
(§4) Sterile CAMH broth (200 μL) containing 20 μM Apo-Transferrin was pipetted into the first row of 8 columns of a sterile, round-bottomed, transparent, 96-well microplate using an 8-channel pipette equipped with sterile tips. One hundred μL was pipetted into the wells of the remaining 11 rows.
(§5) With an 8-channel pipette equipped with sterile tips, 100 μL of the first row solution was transferred to the second row and mixed. The process was repeated for the second to third rows and continued through row 11. One hundred μL from row 11 was removed and discarded so that all 12 rows contained 100 μL. Row 12 contained no compound and rows 1-11 contained 64, 32, 16, 8, 4, 2, 1, 0.5, 0.25, 0.125, […] of a given compound.
(§6) Inoculant suspensions (0.5 μL) were added to the 12 wells of each column. The plates were then covered and incubated at 37° C. overnight for 18 hours.
(§7) For each organism the MIC was determined by identifying the transparent well with the lowest test compound concentration.

Assay [2] concerns Pseudomonas aeruginosa PA (RR-1). In words: MIC determination. As to conditions: Pseudomonas aeruginosa, 18 h, read-out: Minimum Inhibitory Concentrations, PA (RR-1). As to the method:
as §1, §2, §3, §4, §5, §6, §7

Assay [3] deals with Pseudomonas aeruginosa PA (RR-2). As to the kind of experiment: MIC determination. As to conditions: Pseudomonas aeruginosa, 18 h, read-out: Minimum Inhibitory Concentrations, PA (RR-2). As to the method: as §1, §2, §3, §4, §5, §6, §7
For assay [4], the system named is Pseudomonas aeruginosa PA (URMC-2). In words: MIC determination. The following applies: Pseudomonas aeruginosa, 18 h, read-out: Minimum Inhibitory Concentrations, PA (URMC-2). As to the method: as §1, §2, §3, §4, §5, §6, §7
Assay [5] has as its system Pseudomonas aeruginosa PA (URMC-3). As to the kind of experiment: MIC determination. As to conditions: Pseudomonas aeruginosa, 18 h, read-out: Minimum Inhibitory Concentrations, PA (URMC-3). As to the method: as §1, §2, §3, §4, §5, §6, §7
For assay [6], the system named is Pseudomonas aeruginosa PA-RR-(980151052). As to the kind of experiment: MIC determination. As to conditions: Pseudomonas aeruginosa, 18 h, read-out: Minimum Inhibitory Concentrations, PA-RR-(980151052). As to the method:
as §1, §2, §3, §4, §5, §6, §7

The subject of assay [7] is Pseudomonas aeruginosa PA-RR-(98023895). As to the kind of experiment: MIC determination. As to conditions: Pseudomonas aeruginosa, 18 h, read-out: Minimum Inhibitory Concentrations, PA-RR-(98023895). As to the method:
as §1, §2, §3, §4, §5, §6, §7

Assay [8] deals with Pseudomonas aeruginosa PA-RR-(G7294437). In words: MIC determination. The following applies: Pseudomonas aeruginosa, 18 h, read-out: Minimum Inhibitory Concentrations, PA-RR-(G7294437). As to the method: as §1, §2, §3, §4, §5, §6, §7
The test system of assay [9] is Pseudomonas aeruginosa PA-RR-(G7304100). In words: MIC determination. As to conditions: Pseudomonas aeruginosa, 18 h, read-out: Minimum Inhibitory Concentrations, PA-RR-(G7304100). As to the method:
as §1, §2, §3, §4, §5, §6, §7

Assay [10] concerns Pseudomonas aeruginosa PA-RR-(G7305586). As to the kind of experiment: MIC determination. The following applies: Pseudomonas aeruginosa, 18 h, read-out: Minimum Inhibitory Concentrations, PA-RR-(G7305586). As to the method: as §1, §2, §3, §4, §5, §6, §7
The test system of assay [11] is Pseudomonas aeruginosa PA-RR-(G8062859). In words: MIC determination. As to conditions: Pseudomonas aeruginosa, 18 h, read-out: Minimum Inhibitory Concentrations, PA-RR-(G8062859). As to the method: as §1, §2, §3, §4, §5, §6, §7
Assay [12] has as its system Pseudomonas aeruginosa PA-RR-(purple Fre D). As to the kind of experiment: MIC determination. As to conditions: Pseudomonas aeruginosa, CAMH broth, 20 μM Apo-Transferrin, 37° C., 18 hours, read-out: Minimum Inhibitory Concentrations, PA-RR-(purple Fre D). As to the method:
as §1, §2, §3, §4, §5, §6, §7

Assay [13] deals with E. coli J53 Alone. As to the kind of experiment: MIC determination, isogenic E. coli strains. As to conditions: for Mimimum Inhibitory Concentrations, J53 Alone: CAMH broth, 20 μM Apo-Transferrin, 37° C., 18 hours. As to the method:
as §1, §2, §3, §4, §5, §6, §7
(§8) The gene sequence for each beta-lactamase enzyme was synthesized and inserted into the pBC-SK(+) plasmid by GenScript, a commercial service. E. coli J53 was transformed with each plasmid via electroporation and resistant transformants were selected on agar plates containing 50 micrograms/mL ampicillin. The selected transformants were stored at −80 degrees C. in 20% glycerol.

Assay [14] deals with Isogenic E. coli J58 strain carrying DHA-1. In words: MIC determination, isogenic E. coli strains. As to the method: as §1, §2, §3, §4, §5, §6, §7, §8
Assay [15] relates to Isogenic E. coli J58 strain carrying TEM-26. In words: MIC determination, isogenic E. coli strains. As to the method:
as §1, §2, §3, §4, §5, §6, §7
TEM-26 (Group 2be beta-lactamase, hydrolyzes extended spectrum cephalosporins and monobactams), [25];
as §8

The test system of assay [16] is Isogenic E. coli J58 strain carrying SHV-1. As to the kind of experiment: MIC determination, isogenic E. coli strains. As to the method: as §1, §2, §3, §4, §5, §6, §7
SHV-1 (Class A, Group 2b beta-lactamase, hydrolyzes penicillins and early cephalosporins);
as §8

Assay [17] deals with Isogenic E. coli J58 strain carrying CTX-M-14. In words: MIC determination, isogenic E. coli strains. As to the method: as §1, §2, §3, §4, §5, §6, §7
(§9) CTX-M-14 and CTX-M-15 (Class A, Group 2be beta-lactamases, hydrolyzes extended spectrum cephalosporins and monobactams);
as §8

Assay [18] has as its system Isogenic E. coli J58 strain carrying CTX-M-15. In words: MIC determination, isogenic E. coli strains. As to the method:
as §1, §2, §3, §4, §5, §6, §7, §9, §8

Assay [19] has as its system Isogenic E. coli J58 strain carrying KPC-2. As to the kind of experiment: MIC determination, isogenic E. coli strains. As to the method:
as §1, §2, §3, §4, §5, §6, §7
(§10) KPC-2 and KPC-3 (Class A, Group 2f, carbapenemases);
as §8

Assay [20] has as its system Isogenic E. coli J58 strain carrying KPC-3. As to the kind of experiment: MIC determination, isogenic E. coli strains. As to the method: as §1, §2, §3, §4, §5, §6, §7, §10, §8
Assay [21] concerns Isogenic E. coli J58 strain carrying NDM-1. As to the kind of experiment: MIC determination, isogenic E. coli strains. As to the method:
as §1, §2, §3, §4, §5, §6, §7
NDM-1 (Group 3a carbapenemase, broad spectrum divalent Zn^++ metallo-Beta-Lactamase);
as §8

Assay [22] relates to Isogenic E. coli J58 strain carrying VIM-2. As to the kind of experiment: MIC determination, isogenic E. coli strains. As to the method: as §1, §2, §3, §4, §5, §6, §7
VIM-2 (Group 3a carbapenemase, metallo-beta-lactamase); and
as §8

In assay [23] the test system is Isogenic E. coli J58 strain carrying IMP-1. As to the kind of experiment: MIC determination, isogenic E. coli strains. As to the method:
as §1, §2, §3, §4, §5, §6, §7
IMP-1 (Group 3a carbapenemase, metallo-beta-Lactamase).
as §8

On to `CC[N+]1(Cc2ccc(C=CC3=C(C(=O)O)N4C(=O)[C@@H](NC(=O)/C(=N\OC(C)(C)C(=O)O)c5csc(N)n5)[C@H]4SC3)cc2)CCc2cc(O)c(O)cc2C1` (mixture of isomers) [Compound 423, 2-(4-((E/Z)-2-((6R,7R)-7-((Z)-2-(2-aminothiazol-4-yl)-2-(((2-carboxypropan-2-yl)oxy)imino)acetamido)-2-carboxy-8-oxo-5-thia-1-azabicyclo[4.2.0]oct-2-en-3-yl)vinyl)benzyl)-2-ethyl-6,7-dihydroxy-1,2,3,4-tetrahydroisoquinolin-2-ium], for which the MIC in assay [1] was 2 µg/mL; in assay [2], 2 µg/mL; in assay [3], 2 µg/mL; in assay [4], 2 µg/mL; in assay [5], at most 0.06 µg/mL; in assay [6], 2 µg/mL. Also, the MIC was 8 µg/mL in [7]; 0.5 µg/mL in assay [8]; at most 0.06 µg/mL in [9]; 8 µg/mL in assay [10]; 2 µg/mL in assay [11]; 1 µg/mL in assay [12]. In addition, the MIC in assay [13] (Escherichia coli, J53ALONE, 18 h, read-out: Mimimum Inhibitory Concentrations, J53 Alone) came to 0.25 µg/mL; in [14] (Escherichia coli, 18 h, read-out: Mimimum Inhibitory Concentrations, DHA-1), 1 µg/mL; in assay [15] (Escherichia coli, 18 h, read-out: Mimimum Inhibitory Concentrations, TEM-26) it was 2 µg/mL; in assay [16] (Escherichia coli, 18 h, read-out: Mimimum Inhibitory Concentrations, SHV-1) it was 2 µg/mL; in [17] (Escherichia coli, 18 h, read-out: Mimimum Inhibitory Concentrations, CTX-M-14), 2 µg/mL; in [18] (Escherichia coli, 18 h, read-out: Mimimum Inhibitory Concentrations, CTX-M-15), 2 µg/mL. In addition, the MIC in [19] (Escherichia coli, 18 h, read-out: Mimimum Inhibitory Concentrations, KPC-2) is 8 µg/mL; in assay [20] (Escherichia coli, 18 h, read-out: Mimimum Inhibitory Concentrations, KPC-3) it was 4 µg/mL; in assay [21] (Escherichia coli, 18 h, read-out: Mimimum Inhibitory Concentrations, NDM-1) it was above 64 µg/mL; in assay [22] (Escherichia coli, 18 h, read-out: Mimimum Inhibitory Concentrations, VIM-2), 0.5 µg/mL; in assay [23] (Escherichia coli, 18 h, read-out: Mimimum Inhibitory Concentrations, IMP-1) it was 32 µg/mL. Further, the “Mimimum Inhibitory Concentrations, J53 Alone” value in [13] (Table 4-2) came out at 0.25 microgram/mL.

In the case of `CC(C)(O/N=C(\C(=O)N[C@@H]1C(=O)N2C(C(=O)O)=C(C=Cc3ccc(C[N+]4(C5CCC5)CCc5ccc(O)c(O)c5C4)cc3)CS[C@H]12)c1csc(N)n1)C(=O)O` (mixture of isomers) [Compound 444, 2-(4-((E/Z)-2-((6R,7R)-7-((Z)-2-(2-aminothiazol-4-yl)-2-(((2-carboxypropan-2-yl)oxy)imino)acetamido)-2-carboxy-8-oxo-5-thia-1-azabicyclo[4.2.0]oct-2-en-3-yl)vinyl)benzyl)-2-cyclobutyl-7,8-dihydroxy-1,2,3,4-tetrahydroisoquinolin-2-ium], the “Mimimum Inhibitory Concentrations, J53 Alone” value in [13] (Table 4-1) and in assay [13] (Table 4-2) was 0.5 microgram/mL each time. Further, in assay [14] (isogenic E. coli strain, DHA-1, CAMH broth, 20 μM Apo-Transferrin, 37° C., 18 hours), the “Mimimum Inhibitory Concentrations, DHA-1” value worked out at 1 microgram/mL. In assay [15] (isogenic E. coli strain, TEM-26, CAMH broth, 20 μM Apo-Transferrin, 37° C., 18 hours), the “Mimimum Inhibitory Concentrations, TEM-26” value worked out at 0.25 microgram/mL. The “Mimimum Inhibitory Concentrations, SHV-1” value in [16] (isogenic E. coli strain, SHV-1, CAMH broth, 20 μM Apo-Transferrin, 37° C., 18 hours) was 1 microgram/mL. Also, the “Mimimum Inhibitory Concentrations, CTX-M-14” value in assay [17] (isogenic E. coli strain, CTX-M-14, CAMH broth, 20 μM Apo-Transferrin, 37° C., 18 hours) is reported as 0.25 microgram/mL. Further, the “Mimimum Inhibitory Concentrations, CTX-M-15” value in assay [18] (isogenic E. coli strain, CTX-M-15, CAMH broth, 20 μM Apo-Transferrin, 37° C., 18 hours) is reported as 1 microgram/mL. Also, the “Mimimum Inhibitory Concentrations, KPC-2” value in [19] (isogenic E. coli strain, KPC-2, CAMH broth, 20 μM Apo-Transferrin, 37° C., 18 hours) is on record as 8 microgram/mL. In addition, the “Mimimum Inhibitory Concentrations, KPC-3” value in assay [20] (isogenic E. coli strain, KPC-3, CAMH broth, 20 μM Apo-Transferrin, 37° C., 18 hours) is on record as 2 microgram/mL. Further, the “Mimimum Inhibitory Concentrations, NDM-1” value in assay [21] (isogenic E. coli strain, NDM-1, CAMH broth, 20 μM Apo-Transferrin, 37° C., 18 hours) is listed as 32 microgram/mL. In addition, the “MICs for an E. coli strain carrying the gene for NDM-1, in words” value in assay [21] (review of Tables 4-1 and 4-2) is on record as “lower MICS compared to other compounds tested”. Also, in assay [22] (isogenic E. coli strain, VIM-2, CAMH broth, 20 μM Apo-Transferrin, 37° C., 18 hours), the “Mimimum Inhibitory Concentrations, VIM-2” value is 0.5 microgram/mL. The “Mimimum Inhibitory Concentrations, IMP-1” value in assay [23] (isogenic E. coli strain, IMP-1, CAMH broth, 20 μM Apo-Transferrin, 37° C., 18 hours) amounted to 0.5 microgram/mL.
